Where two headings read alike, the source gives them in different places.
How the values were obtained:
[1] = tested on: Pf3D7-pfs16-CBG99 gametocytes, immature (stage II/III) and mature (stage V); assay: Gametocyte killing assay (luciferase); type: cell-based; conditions: Plasmodium falciparum, 48 h
Procedure: Gametocytogenesis was induced on a tightly synchronised (>97% rings) asexual parasite culture (Pf3D7-pfs16-CBG99 (kind gift from Pietro Alano), 0.5% parasitemia and 6% hematocrit) with a combination of nutrient starvation and a decrease in hematocrit, as previously described. For immature gametocytes (>90% stage II/III), cultures were exposed to 50 mM N-acetyl glucosamine (NAG) on days 1–4 to eliminate residual asexual parasites and harvested at days 5–6. For mature (>95% stage V) gametocytes, NAG treatment occurred from days 3–7 and harvest at day 13. Stage II/III and V gametocyte cultures (2 % gametocytaemia 1.5 % haematocrit, 150 μL/well) were exposed to compounds and incubated at 37°C for 48 h under hypoxic conditions, after which luciferase activity was determined with a non-lysing D-luciferin substrate (1mM in 0.1M citrate buffer, pH 5.5, 100 μL) and bioluminescence was detected with a 2 s integration time with a GloMax-Multi Detection System with Instinct software.

[2] = tested on: P. falciparum liver stage schizont (NF135); assay: Liver stage schizont assay in primary human hepatocytes (NF135); type: cell-based; conditions: Plasmodium falciparum, Hepatocyte, 96 h, four days
Procedure: (§1) Activity against liver stage parasites was performed using a modification of published procedures. Briefly, cryopreserved human primary hepatocytes (NF175: H1500.H15B+ Lot No. HC0-6, TebuBio or NF135: F00995-P Lot No. IRZ, BioIVT) were thawed and seeded at 18,000 cells per well in collagen-coated 384-well microtiter plates in medium containing 10% heat inactivated fetal bovine serum (hiFBS). Cells were cultured at 37°C in 5% CO2. For NF175, medium was replaced by fresh medium containing 10% hiFBS, 5 h post plating. For NF135, medium was replaced by medium containing 0.2% BSA, 24 h post plating. 48 h post plating, salivary glands from Plasmodium-NF175 or NF135-infected Anopheles stephensi mosquitoes were dissected, added to the hepatocytes (10,000 per well/ NF175; or 12,500 per well/ NF135) and allowed to infect for 3 hours. Sporozoites were then aspirated, and compounds diluted in medium containing 10% hiFBS or 0.2% BSA, were added to the hepatocytes. Medium containing 10% hiFBS or 0.2% BSA and compounds was refreshed daily for four days. Hepatocytes were fixed with ice-cold methanol and samples were blocked with 10% hiFBS in PBS. Schizonts were stained with rabbit anti-HSP70 in 10% hiFBS for 1–2 h followed by incubation with a mixture of secondary goat anti-rabbit AlexaFluor 594 antibody and 4′,6-diamidine-2′-phenylindole dihydrochloride (DAPI) in 10% hiFBS for 30 min. Samples were washed with PBS containing 0.05% Tween 20 between different steps. Cells were imaged on a PicoExpress high content imager, and images were analysed automatically using CellReporterXpress software. Data were analysed by logistic regression using a four-parameter (Hill equation) model and a least-squares method to find the best fit.

[3] = tested on: Primary hepatocytes; assay: Toxicity to primary hepatocyte host cells in the liver stage assay; type: cell-based, human; conditions: for IC50: Homo sapiens, Hepatocyte
Procedure: as §1

[4] = tested on: Dd2-B2 parasites; assay: Minimum inoculum of resistance (MIR) selection; type: cell-based, Plasmodium falciparum; conditions: for IC50: DD2, read-out: in-house mean IC50; for IC50 fold shift (clones): 3 x IC50
Procedure: MIR studies were conducted for ML901 and ML471 using a modified “Gate keeper assay” [34]. […] For ML901, the parasites (starting parasite inoculums of 1x10^7 or 1x10^8 in triplicate) were subjected to pressure at 3 x IC50, with recrudescence on days 12–14. […] The different pressure regimens reflect the standard protocols in the Fidock lab used at the times of analysis. Wells were monitored daily by smear during the first seven days to ensure parasite clearance, during which media was changed daily. Thereafter, cultures were screened three times weekly by flow cytometry and smearing, and the selection maintained a consistent drug pressure over 60 days. […] Whole-genome sequencing analysis identified CNVs in chromosome 8 segments, always containing the PfTyrRS locus, consistent with our earlier evidence of this as the target of ML901 [16]. Single nucleotide polymorphism (SNP) filtering was lowered to 0.5 allelic balance (AB) but yielded no point mutations in the core genome.

[5] = molecular target: T1, HsTyrRS (Homo sapiens, UniProt P54577); assay: Differential scanning fluorimetry (DSF) of HsTyrRS; type: binding; conditions: for thermal stabilisation of recombinant HsTyrRS (in words): with all substrates; for HsTyrRS Tm: with sulfamate, tyrosine and tRNA, apo 49.0 ± 0.2
T1 sequence (P54577 1-528): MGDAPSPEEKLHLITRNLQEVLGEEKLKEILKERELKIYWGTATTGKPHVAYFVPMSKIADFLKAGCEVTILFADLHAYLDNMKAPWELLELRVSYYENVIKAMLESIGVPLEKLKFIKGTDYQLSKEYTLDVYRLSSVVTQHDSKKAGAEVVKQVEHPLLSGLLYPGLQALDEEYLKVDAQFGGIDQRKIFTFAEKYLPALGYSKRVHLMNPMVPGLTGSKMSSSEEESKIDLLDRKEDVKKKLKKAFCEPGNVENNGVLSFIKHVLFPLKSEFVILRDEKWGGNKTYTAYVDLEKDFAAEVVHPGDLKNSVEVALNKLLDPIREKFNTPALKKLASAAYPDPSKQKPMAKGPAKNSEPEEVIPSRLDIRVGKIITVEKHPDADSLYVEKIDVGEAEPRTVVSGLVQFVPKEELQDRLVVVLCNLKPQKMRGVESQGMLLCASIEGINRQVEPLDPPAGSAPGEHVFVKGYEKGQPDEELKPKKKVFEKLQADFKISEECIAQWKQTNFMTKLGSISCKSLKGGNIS
Procedure: The effect on ML471 and analogues on the thermal stability of TyrRS enzymes was assayed as previously described. […] SYPRO Orange (Sigma-Aldrich; 5,000X concentrate in DMSO) was added to the reaction mixture at a final concentration of 5X. 25 μL of the sample was added into each well of a 96-well qPCR plate (Applied Biosystems). The plate was sealed and analysed using StepOnePlus Real-Time PCR system (Applied Biosystems). The samples were heated from 20°C to 90°C with a 1% continuous gradient. The thermal unfolding curve was plotted as the first derivative curve of the raw fluorescence values. The melting temperature (Tm), defined as the peak of the first derivative curve, was used to assess the thermal stability of protein-ligand complexes.

[6] = tested on: CAM 3.II Rev parasites, trophozoite and schizont stages; assay: Pulsed exposure viability of trophozoite and schizont stages, flow cytometry of Syto-61-labelled parasites; type: cell-based, Plasmodium falciparum; conditions: for LD50 Troph: trophozoite
[7] = read-out: Early stage gametocytes IC50
[8] = read-out: Mature stage gametocytes IC50
[9] = host cells of the NF135 experiment
[10] = host cells of the NF175 experiment

## CC(C)c1nn([C@@H]2O[C@H](COS(N)(=O)=O)[C@@H](O)[C@H]2O)c2ncnc(N)c12 [ML471, ((2R,3S,4R,5R)-5-(4-amino-3-isopropyl-1H-pyrazolo[3,4-d]pyrimidin-1-yl)-3,4-dihydroxytetrahydrofuran-2-yl)methyl sulfamate]
[1]; [7]
  IC50: 112 nM
[1]; [8]
  IC50: 392 nM
[2]
  IC50: 5.5 nM
[3]
  toxicity against the primary hepatocyte host cells (in words): no toxicity
[3]; [9]
  IC50: > 100 nM
[3]; [10]
  IC50: > 10000 nM
[4]; Plasmodium falciparum
  IC50: 1.45 nM
[4]; Plasmodium falciparum, DD2, read-out: mean IC90
  IC90: 1.99 nM
[4]; selection with 2x10^5 parasites, 10 x IC50
  IC50 shift: 9-16 xIC50
[5]; 200 μM sulfamate, ATP, tyrosine, yeast tRNA, 37°C 4 h, read-out: HsTyrRS binding (DSF) Delta Tm
  ΔTm at 200 µM: 0.06 ± 0.04 °C
[5]
  thermal stabilisation of recombinant HsTyrRS (in words): not stabilised
[5]; ATP
  HsTyrRS Tm: 49.0 ± 0.2 °C

## Nc1ncnc2c1c(OC(F)F)nn2[C@@H]1O[C@H](COS(N)(=O)=O)[C@@H](O)[C@H]1O [ML901]
[6]; 30 h continuous
  LD50 Schizont: 8.5 ± 0.7 nM
[6]; drug pulse time 3 h
  LD50 Schizont: 88 ± 1 nM
  LD50 Troph: 1700 ± 460 nM
[6]; drug pulse time 6 h
  LD50 Schizont: 36 ± 6 nM
  LD50 Troph: 680 ± 48 nM
[6]; drug pulse time 9 h
  LD50 Schizont: 21 ± 12 nM
  LD50 Troph: 290 ± 150 nM
[6]; short pulses of 3 h or 6 h
  fold lower sensitivity of trophozoite stage compared with schizont stage: 10 to 20 fold
[6]; 48 h continuous
  LD50 Troph: 3.9 ± 0.8 nM
[6]; drug pulse time 24 h
  LD50 Troph: 4.0 ± 0.0 nM
[1]; [7]
  IC50: 310 ± 60 nM
[1]; [8]
  IC50: 1660 ± 140 nM
[2]
  IC50: 2.9 ± 0.9 nM
[3]; [9]
  IC50: > 100 nM
[3]; [10]
  IC50: > 10000 nM
[4]; Plasmodium falciparum
  IC50: 2.6 ± 0.05 nM
[4]; selection with 10^7 parasites
  IC50 fold shift (clones): 2-3 x IC50
[4]; selection with 10^8 parasites
  IC50 fold shift (clones): 3-6 x IC50
[5]; 200 μM sulfamate, ATP, tyrosine, yeast tRNA, 37°C 4 h
  HsTyrRS binding (DSF) Delta Tm: 0.4 ± 0.1 °C
[5]
  thermal stabilisation of recombinant HsTyrRS (in words): not stabilised
[5]; ATP
  HsTyrRS Tm: 49.4 ± 0.1 °C

Reference: PMC11671014 (PLOS Pathogens, 2024)
